Assay results reported in ChEMBL document CHEMBL1133203, “Synthesis of L-(+)-3-(3-hydroxy-4-pivaloyloxybenzyl)-2,5-diketomorpholine as potential prodrug of L-dopa” (Bioorg Med Chem Lett, 2000).
In brackets after ≈: the same amount, converted by molar mass.

Key:
[1] = Partition coefficient is determined in octanol/buffer solution at pH 7.4; format: physicochemical
[2] = Half-life in chemical and enzymatic hydrolysis, in buffer at pH 7.4; format: ADME
[3] = Rate constant in chemical and enzymatic hydrolysis to form another compound (8)*, in 80% human plasma (experiment 1); format: ADME, cell-free
[4] = Half-life in chemical and enzymatic hydrolysis, in 80% rat plasma; format: ADME
[5] = Rate constant in chemical and enzymatic hydrolysis to form another compound (8)*, in 80% human plasma (experiment 2); format: ADME, cell-free
[6] = Aqueous solubility was evaluated; format: physicochemical; conditions: buffer
Rattus norvegicus = organism: Rattus norvegicus; assay: Rate constant in chemical and enzymatic hydrolysis, in 80% rat plasma; format: ADME
[7] = Rate constant in chemical and enzymatic hydrolysis, in buffer at pH 7.4; format: ADME
[8] = Rate constant in chemical and enzymatic hydrolysis, in buffer at pH 1.3; format: ADME
[9] = Half-life in chemical and enzymatic hydrolysis, in buffer at pH 1.3; format: ADME
[10] = Rate constant in chemical and enzymatic hydrolysis to form L-DOPA, in 80% human plasma; format: ADME, cell-free

logD [1] | half-life [2] | K obs [3] | half-life [4] | K obs [5] | solubility [6] | K obs (Rattus norvegicus) | K obs [7] | K obs [8] | half-life [9] | K obs [10] | Structure (SMILES)
2.15 | 1.55 h | 0.019 min⁻¹ | 2.7 min | 0.019 min⁻¹ | 50 µg/mL (≈ 156 µM) | 0.29 min⁻¹ | 0.0075 min⁻¹ | 0.00022 min⁻¹ | 52.3 h |  | CC(C)(C)C(=O)Oc1ccc(C[C@@H]2NC(=O)COC2=O)cc1O
 |  |  |  |  |  |  |  |  |  | 0.0047 min⁻¹ | O=C1COC(=O)[C@H](Cc2ccc(O)c(O)c2)N1
